Experimental data reported in US20140005164A1, “WNT PATHWAY ANTAGONISTS” (Siena Biotech S.p.A., priority 2011, published 2014).
pIC50: −log10 of the molar value.

Each compound was assayed on Wnt/β-catenin pathway (assay: Wnt reporter assay (TCF-Luciferase, Firefly) in DBTRG-05MG cells). Conditions: Homo sapiens, 24 h, read-out: IC50 value in the reporter assay.
Format: cell-based
Procedure: Three copies of a 4×TCF responsive elements were cloned into the pcDNA3.1/Zeo(+) vector (Invitrogen) after deletion of the constitutive CMV promoter and the insertion of the Firefly Luciferase from Promega (phFL-TK) to measure the activity of the Wnt/β-catenin pathway. The resulting plasmid was sequenced for quality control.
Cells were grown in 20 μg/ml Zeocin and 20 μg/ml Zeocin plus 30 μg/ml Hygromicin respectively. The cells were plated at a density of 6500 cells/well in poly-D-lysine pre-treated 96 well-plates.
36 hours after plating cells were incubated with 8-points dilutions compound (0.6% DMSO (v/v)). Each compound was tested in triplicate in single plate. Luciferase detection was done with Dual-Luciferase Reporter Assay System (Promega). 24 hours after compound addition, media was removed and 30 μl of 1× lysis buffer was added to each well for 30 minutes. To each well 45 μl of Dual-Glo Luciferase reagent (Promega) were added and after 1 second delay Luciferase was detected for 1 second using Mithras LB940 instrument. After Firefly luciferase quantification 45 μl of Dual Stop & Glo reagent (Promega) were added to each well and […] Renilla was detected using the same parameters described before.
Data were expressed as % of control for Firefly and Renilla luciferase independently; values were calculated using XLFit version 4.2, with a four parameters sigmoid function (XLFit model 205).

Row | Structure (SMILES) | pIC50
1 | COc1ccc2c(c1)n(C[C@H]1CC[C@H](C(=O)N3CCC4(CC3)OCCO4)CC1)c(=O)n2C [Example 86] | 4.64 to 7.46

Same assay, conditions: Homo sapiens, TCF-Luciferase (Firefly) read out, 24 hours after compound addition, range given with mixed units nM and μM, read-out: IC50 value in the reporter assay

Row | Structure (SMILES) | IC50 [nM]
2 | COc1ccc2c(c1)n(C[C@H]1CC[C@H](C(=O)Nc3ccnc(N4CCOCC4)c3)CC1)c(=O)n2C [Example 50] | 35 to 23000
3 | COc1ccc2c(c1)n(C[C@H]1CC[C@H](C(=O)N3CCN(c4nccc(OC)n4)CC3)CC1)c(=O)n2C [Example 51] | 35 to 23000
4 | COc1cc(NC(=O)[C@H]2CC[C@H](Cn3c(=O)n(C)c4ccc(Cl)cc43)CC2)ccn1 [Example 52] | 35 to 23000
5 | Cn1c(=O)n(C[C@H]2CC[C@H](C(=O)N3CCN(c4nccs4)CC3)CC2)c2cc(Cl)ccc21 [Example 53] | 35 to 23000
6 | Cn1c(=O)n(C[C@H]2CC[C@H](C(=O)N3CCN(c4nccs4)CC3)CC2)c2ccc(Cl)cc21 [Example 54] | 35 to 23000
7 | Cn1c(=O)n(C[C@H]2CC[C@H](C(=O)N3CCN(c4ncccn4)CC3)CC2)c2ccc(Cl)cc21 [Example 55] | 35 to 23000
8 | Cn1c(=O)n(C[C@H]2CC[C@H](C(=O)N3CCN(c4nccs4)CC3)CC2)c2cccc(Cl)c21 [Example 56] | 35 to 23000
9 | COCCOc1cc(NC(=O)[C@H]2CC[C@H](Cn3c(=O)n(C)c4cc(Cl)ccc43)CC2)ccn1 [Example 57] | 35 to 23000
10 | COc1cc(NC(=O)[C@H]2CC[C@H](Cn3c(=O)n(C)c4c(Cl)cccc43)CC2)ccn1 [Example 58] | 35 to 23000
11 | COc1ccc2c(c1)n(C[C@H]1CC[C@H](C(=O)N3[C@H](C)CCC[C@@H]3C)CC1)c(=O)n2C [Example 59] | 35 to 23000
12 | COc1ccc2c(c1)n(C[C@H]1CC[C@H](C(=O)N3CCN(c4cnccn4)CC3)CC1)c(=O)n2C [Example 60] | 35 to 23000
13 | COc1ccc2c(c1)n(C[C@H]1CC[C@H](C(=O)N3CCSCC3)CC1)c(=O)n2C [Example 62] | 35 to 23000
14 | COc1ccc2c(c1)n(C[C@H]1CC[C@H](C(=O)N3CC4CCC(C3)O4)CC1)c(=O)n2C [Example 63] | 35 to 23000
15 | COc1ccc2c(c1)n(C[C@H]1CC[C@H](C(=O)Nc3ccc(N4C[C@@H](C)O[C@@H](C)C4)nc3)CC1)c(=O)n2C [Example 64] | 35 to 23000
16 | COc1ccc2c(c1)n(C[C@H]1CC[C@H](C(=O)N3CCN(c4cccc(OC)n4)CC3)CC1)c(=O)n2C [Example 65] | 35 to 23000
17 | COc1ccc2c(c1)n(C[C@H]1CC[C@H](C(=O)Nc3ccc(-c4nnco4)cc3)CC1)c(=O)n2C [Example 66] | 35 to 23000
18 | COc1ccc2c(c1)n(C[C@H]1CC[C@H](C(=O)Nc3cccc4oc(C5CC5)nc34)CC1)c(=O)n2C [Example 67] | 35 to 23000
19 | Cn1c(=O)n(C[C@H]2CC[C@H](C(=O)Nc3ccncc3)CC2)c2cc(C3CC3)ccc21 [Example 69] | 35 to 23000
20 | Cc1cnccc1NC(=O)[C@H]1CC[C@H](Cn2c(=O)n(C)c3ccc(C4CC4)cc32)CC1 [Example 70] | 35 to 23000
21 | Cn1c(=O)n(C[C@H]2CC[C@H](C(=O)N3CCN(c4ccncc4)CC3)CC2)c2cc(C(F)(F)F)ccc21 [Example 73] | 35 to 23000
22 | COc1ccc2c(c1)n(C[C@H]1CC[C@H](C(=O)N3CCN(C(=O)[C@@H]4CCC(=O)O4)CC3)CC1)c(=O)n2C [Example 74] | 35 to 23000
23 | COc1ccc2c(c1)n(C[C@H]1CC[C@H](C(=O)N3CCN(C(=O)[C@H]4CCC(=O)O4)CC3)CC1)c(=O)n2C [Example 75] | 35 to 23000

Row | Structure (SMILES) | IC50 [nM]
24 | COc1ccc2c(c1)n(C[C@H]1CC[C@H](C(=O)N3CCN(c4ccncc4)CC3)CC1)c(=O)n2C [Example 76] | 35 to 23000
25 | COCCNc1ccc2c(c1)n(C[C@H]1CC[C@H](C(=O)Nc3ccncc3)CC1)c(=O)n2C [Example 78] | 35 to 23000
26 | COc1ccc2c(c1)n(C[C@H]1CC[C@H](C(=O)N3CCN(c4ccnc(F)c4)CC3)CC1)c(=O)n2C [Example 79] | 35 to 23000
27 | COc1ccc2c(c1)n(C[C@H]1CC[C@H](C(=O)N3CCN(c4ncc(Br)cn4)CC3)CC1)c(=O)n2C [Example 80] | 35 to 23000
28 | COc1ccc2c(c1)n(C[C@H]1CC[C@H](C(=O)N3CCC(C(C)=O)CC3)CC1)c(=O)n2C [Example 81] | 35 to 23000
29 | COc1ccc2c(c1)n(C[C@H]1CC[C@H](C(=O)N3CCC(c4ncccn4)CC3)CC1)c(=O)n2C [Example 82] | 35 to 23000
30 | COc1ccc2c(c1)n(C[C@H]1CC[C@H](C(=O)N3CCC(c4cnccn4)CC3)CC1)c(=O)n2C [Example 83] | 35 to 23000
31 | COc1ccc2c(c1)n(C[C@H]1CC[C@H](C(=O)N3CCC(c4noc(C)n4)CC3)CC1)c(=O)n2C [Example 84] | 35 to 23000
32 | CONC(=O)C1CCN(C(=O)[C@H]2CC[C@H](Cn3c(=O)n(C)c4ccc(OC)cc43)CC2)CC1 [Example 85] | 35 to 23000
33 | COc1ccc2c(c1)n(C[C@H]1CC[C@H](C(=O)N3CCN(c4cccc(C(F)(F)F)n4)CC3)CC1)c(=O)n2C [Example 87] | 35 to 23000
34 | COc1ccc2c(c1)n(C[C@H]1CC[C@H](C(=O)N3CCN(c4ccc(C#N)nc4)CC3)CC1)c(=O)n2C [Example 88] | 35 to 23000
35 | COc1ccc2c(c1)n(C[C@H]1CC[C@H](C(=O)N3CCN(c4ccc(F)nc4)CC3)CC1)c(=O)n2C [Example 89] | 35 to 23000
36 | COc1ccc2c(c1)n(C[C@H]1CC[C@H](C(=O)N3CCN(c4ccc(C(F)(F)F)nc4)CC3)CC1)c(=O)n2C [Example 90] | 35 to 23000
37 | COc1ccc2c(c1)n(C[C@H]1CC[C@H](C(=O)N3CCN(c4ccnc(OC)c4)CC3)CC1)c(=O)n2C [Example 91] | 35 to 23000
38 | COc1ccc2c(c1)n(C[C@H]1CC[C@H](C(=O)N3CCN(c4ccc(C)nc4)CC3)CC1)c(=O)n2C [Example 93] | 35 to 23000
39 | COc1ccc2c(c1)n(C[C@H]1CC[C@H](C(=O)N3CCN(c4cc(C)nc(C)c4)CC3)CC1)c(=O)n2C [Example 94] | 35 to 23000
40 | COc1ccc2c(c1)n(C[C@H]1CC[C@H](C(=O)N3CC4(COC4)C3)CC1)c(=O)n2C [Example 95] | 35 to 23000
41 | COc1ccc2c(c1)n(C[C@H]1CC[C@H](c3nnc(-c4cccnc4)o3)CC1)c(=O)n2C [Example 96] | 35 to 23000
42 | COc1ccc2c(c1)n(C[C@H]1CC[C@H](c3nnc(-c4ccncc4)o3)CC1)c(=O)n2C [Example 97] | 35 to 23000
43 | COc1ccc2c(c1)n(C[C@H]1CC[C@H](c3nnc(-c4ccc(C)nc4)o3)CC1)c(=O)n2C [Example 98] | 35 to 23000
44 | COc1ccc2c(c1)n(C[C@H]1CC[C@H](c3nnc(-c4csc(C)n4)o3)CC1)c(=O)n2C [Example 99] | 35 to 23000
45 | COc1ccc2c(c1)n(C[C@H]1CC[C@H](C(=O)Nc3ccnnc3)CC1)c(=O)n2C [Example 100] | 35 to 23000

Row | Structure (SMILES) | IC50 [nM]
46 | CC(=O)N1CCN(C(=O)[C@H]2CC[C@H](Cn3c(=O)n(C)c4ccc(CCCC#N)nc43)CC2)CC1 [Example 101] | 35 to 23000
47 | COCC#Cc1ccc2c(n1)n(C[C@H]1CC[C@H](C(=O)N3CCN(C(C)=O)CC3)CC1)c(=O)n2C [Example 102] | 35 to 23000
48 | COc1ccc2c(c1)n(C[C@H]1CC[C@H](C(=O)Nc3cncnc3)CC1)c(=O)n2C [Example 103] | 35 to 23000
49 | COc1ccc2c(c1)n(C[C@H]1CC[C@H](C(=O)Nc3ccncn3)CC1)c(=O)n2C [Example 104] | 35 to 23000
50 | COc1ccc2c(c1)n(C[C@H]1CC[C@H](C(=O)N3CCNC(=O)C3)CC1)c(=O)n2C [Example 105] | 35 to 23000
51 | CCOCc1nnc([C@H]2CC[C@H](Cn3c(=O)n(C)c4ccc(OC)cc43)CC2)o1 [Example 107] | 35 to 23000
52 | COCCN(C)c1ccc2c(n1)n(C[C@H]1CC[C@H](C(=O)Nc3ccncc3)CC1)c(=O)n2C [Example 108] | 35 to 23000
53 | COc1ccc2c(c1)n(C[C@H]1CC[C@H](c3nnc(-c4ccncc4F)o3)CC1)c(=O)n2C [Example 109] | 35 to 23000
54 | COc1ccc2c(c1)n(C[C@H]1CC[C@H](c3nnc(-c4ccn(C)n4)o3)CC1)c(=O)n2C [Example 110] | 35 to 23000
55 | Cn1c(=O)n(C[C@H]2CC[C@H](C(=O)Nc3ccncc3)CC2)c2cc(Br)ccc21 [Example 111] | 35 to 23000
56 | COc1ccc2c(c1)n(C[C@H]1CC[C@H](c3nnc(-c4ccc(OC)c(F)c4)o3)CC1)c(=O)n2C [Example 112] | 35 to 23000
57 | COC/C=C/c1ccc2c(c1)n(C[C@H]1CC[C@H](C(=O)Nc3ccncc3)CC1)c(=O)n2C [Example 113] | 35 to 23000
58 | COC/C=C/c1ccc2c(n1)n(C[C@H]1CC[C@H](C(=O)Nc3ccncc3)CC1)c(=O)n2C [Example 114] | 35 to 23000
59 | Cn1c(=O)n(C[C@H]2CC[C@H](C(=O)Nc3ccncc3)CC2)c2nc(Br)ccc21 [Example 116] | 35 to 23000
60 | COc1ccc2c(c1)n(C[C@H]1CC[C@H](c3nnc(-c4ccncn4)o3)CC1)c(=O)n2C [Example 117] | 35 to 23000
61 | COc1ccc2c(c1)n(C[C@H]1CC[C@H](c3nnc(-c4cccc(OC(F)F)c4)o3)CC1)c(=O)n2C [Example 118] | 35 to 23000
62 | CN(C)CC#Cc1ccc2c(n1)n(C[C@H]1CC[C@H](C(=O)Nc3ccncc3)CC1)c(=O)n2C [Example 119] | 35 to 23000
63 | CN(C)c1ccc2c(n1)n(C[C@H]1CC[C@H](C(=O)Nc3ccncc3)CC1)c(=O)n2C [Example 120] | 35 to 23000
64 | COCCOc1ccc2c(c1)n(C[C@H]1CC[C@H](C(=O)Nc3ccncn3)CC1)c(=O)n2C [Example 122] | 35 to 23000
65 | Cn1c(=O)n(C[C@H]2CC[C@H](C(=O)N3CCN(c4ccncc4)CC3)CC2)c2cc(C#N)ccc21 [Example 123] | 35 to 23000
